Measurements from patent EP4385495A1, “NANOSYSTEMS FOR THE ENCAPSULATION OF THERAPEUTIC AGENTS” (National Technical University of Athens, priority 2022, dated 2024).

What was measured:
[1] = system: IL-6 in RAW264.7 cells; test: IL-6 ELISA in supernatants of LPS-stimulated RAW264.7 cells; type: cell-based, mouse; settings: 48h after dilution of nanosystems
Method: The assay was carried using the MOUSE IL-6 ELISA KIT by ORIGENE_(CATALOG No. EA100128), which was based on the evaluation on Microwell Plates coated with antibody to mouse IL-6. The general protocol provided by the supplier for the evaluation of the samples as well as the development of the standard curve of IL-6 was followed. All reagents and working standards were prepared as directed in the instruction form and determined the number of microwell strips required to test the desired number of samples plus appropriate number of wells needed for running blanks and standards. Then 100µL of Standard, control, or sample, were added per well and the plate was cover with the adhesive strip provided and incubated for 1.5 hours at 37°C.
Afterwards, each well was aspirated and washed, and the process was repeated three times for a total of four washes by filling each well with Wash Buffer. […]
After incubation washing was carried out again, followed by the addition of the working solution of Streptavidin-HRP to each well. […] Finally, the plate was gently tapped to ensure thorough mixing and determine the optical density (OD) of each well immediately, using a microplate reader set to 450 nm (optionally 630nm as the reference wavelength;610-650nm is acceptable).
The OD measured for all samples is reflected on the IL-6 standard curve which was developed following the same steps. […] This quantitative assay is based on the sandwich principal as previously described, utilizing the cell culture supernatants for the evaluation of IL-6 protein presence in LPS-treated cells in the presence of the evaluated samples.
For this protocol, RAW264.7 cells were treated with LPS prior to the measurement to stimulate IL-6 production and results are reported as pg/ml of IL-6 corresponding to the standard curve of IL-6 developed ([…]). […] Table 3: Anti-inflammatory potential of the samples expressed as IL-6 presence in LPS-stimulated RAW264.7 cells supernatants.

[2] = system: experimental animal model of osteoarthritis (OA); test: Knee diameter (digital caliper) and gross observations in collagenase-induced osteoarthritis rat model; type: in vivo, Wistar rats; settings: for Right knee diameter: collagenase-injected knee; for Left knee diameter: untreated control knee
Method: In order to understand the anti-inflammatory and antioxidant potential of the nanoparticles of the invention in vivo an experimental animal model of osteoarthritis (OA) was established. The OA lesions were caused by matrix degradation of articular cartilage using enzymatic means, such as collagenase type-II. Following the induction of osteoarthritis, the studied nanoparticles were administered for 8 weeks in which period the morphological and behavioral changes were measured and finally histological analysis of the articular cartilage samples concluded the in vivo study.
(§1) Healthy adult male Wistar rats (150-200 g) were used for the study, with water and food ad libitum, at a constant temperature of 22°C and controlled lighting (12 h light/12 h dark cycle).
As far as the dispersion procedure of the injectables is concerned, all the natural compounds were dissolved in saline solution, whereas the studied nanoparticles were mechanically grinded in a mortar and pestle set with saline solution and Tween 20 (2% w/v) and heated at 36 °C before each treatment. There were six treatments administered every 10 days. At the end of the experiment rats were euthanized and both knees were collected for histological analysis.
(§2) Rats were anesthetized with chloral hydrate. The right knee joints of Group I were injected with normal saline solution and served as a control. Animals from the groups II, III, IV, V, VI, VII were injected with collagenase type II (Clostridium histolyticum). Collagenase (125 collagen digestion unit/mg) was dissolved in saline, and it was injected intra-articularly into the right knee joint twice on days 1 and 4 of the experiment (Al-Saffar, F., H. Ganabadi and S. Fakurazi. Collagenase and sodium iodoacetate-induced experimental osteoarthritis model in Sprague dawley rats. Asian J. Sci. Res. 2: 1-13, 2009). The left knees of all animals were left untreated as a control.
Changes in body weight and knee diameter were measured on the 1st, 4th,11th,21st,31st,41st,51st, 61st, 71st day before every injection. Knee diameter was measured using a digital caliper. […] A change in body weight is also measured as one of the parameters to assess the course of the disease in the OA animal models.

[3] = system: experimental animal model of osteoarthritis (OA); test: Slope walking test in osteoarthritis rat model; type: in vivo, Wistar rats
Method: as §1
As far as the dispersion procedure of the injectables is concerned, all the natural compounds were dissolved in saline solution, whereas the studied nanoparticles were mechanically grinded in a mortar and pestle set with saline solution and Tween 20 (2% w/v) and heated at 36 °C before each treatment. There were six treatments administered every 10 days.
as §2
For the evaluation of the effectiveness and time of release of the encapsulated compounds, all animals were subjected to a series of behavioral testing in addition to the measurements of body weight and knees diameter change. The experimental protocol of the present study followed the combination of three different behavioral tests, which are von Frey mechanical allodynia test, grid walking and slope walking test. Behavioral tests are performed in three phases, at the beginning before the start of treatment, in the middle of treatment (approximately 35-40 days) and at the end (after the 70th day).
Walking on an inclined plane was used for the clinical assessment of motor function in rats after induction of OA. The method consists of placing the animal on an inclined plane and then measuring the time (seconds) needed for the animals to go up the walking tray.

[4] = 40 days (half of experimental protocol)
[5] = 70 days (end of experimental protocol)

In the case of C[C@@H]1O[C@@H](O[C@H]2[C@H](Oc3cc(O)c4c(c3)O[C@H](c3ccc(O)cc3)CC4=O)O[C@H](CO)[C@@H](O)[C@@H]2O)[C@H](O)[C@H](O)[C@H]1O [S1 [NAR], Naringin], the IL-6 ([1]; 25 µM) is reported as 720,000 pg/ml, the IL-6 ([1]; 50 µM) is reported as 700,000 pg/ml and the IL-6 ([1]; 100 µM) is reported as 455,000 pg/ml. For the same compound, the “% Changes in Left knee diameter” value ([2]; 11 days (before treatment)) was 0,26%, the “% Changes in Right knee diameter” value ([2]; 11 days (before treatment)) was 4,14% and the “% Changes in Left knee diameter” value [2, 4] was 0,79%. The “% Changes in Right knee diameter” value [2, 4] was 3,25%, the “% Changes in Left knee diameter” value [2, 5] was 0,84% and the “% Changes in Right knee diameter” value [2, 5] was 2,35%. The Right knee diameter ([2]; 1st injection CO/saline (before treatment)) was 0,85 cm, the Right knee diameter ([2]; 1st treatment, 10 mg/kg (S1, ibuprofen i.p.; nanoparticles i.a.)) was 0,8852 cm and the Right knee diameter ([2]; 2nd injection CO/saline (before treatment)) was 0,882 cm. The Right knee diameter ([2]; 3rd treatment) was 0,9 cm, the Right knee diameter ([2]; 4th treatment) was 0,8776 cm and the Right knee diameter ([2]; 5th treatment) was 0,8712 cm. The Right knee diameter ([2]; 6th treatment) was 0,87 cm, the Right knee diameter ([2]; final) was 0,87 cm and the Left knee diameter ([2]; 1st injection CO/saline) was 0,8572 cm. For the same compound, the Left knee diameter ([2]; 1st treatment) was 0,8594 cm, the Left knee diameter ([2]; 2nd injection CO/saline) was 0,858 cm and the Left knee diameter ([2]; 4th treatment) was 0,864 cm. The Left knee diameter ([2]; final) was 0,8644 cm, the “Slope Walking” value ([3]; 11 days (before treatment)) was 10,3 sec and the “Slope Walking” value [3, 4] was 8,9 sec. The “Slope Walking” value [3, 5] was 8,6 sec.
